Results from article PMC4608580, “Synthesis and Evaluation of Biological Activity of Antimicrobial – Pro-Proliferative Peptide Conjugates” (PLoS ONE, 2015).

Tested on: Proteus mirabilis
Assay: MIC, broth microdilution
Format: cell-based
Conditions: Mueller-Hinton broth, approximately 10^5 CFU/mL, 37°C, 24 h, absorbance 590 nm, at least triplicate
Procedure: Luria-Bertani broth (LB) and Sabouraud Dextrose broth (SB) (Biocorp, Poland) were used for cultivation of bacteria and fungi strains, respectively. Antimicrobial activity of peptides was analyzed through determination of MIC (minimal inhibitory concentration) parameter according to the standard microdilution technique performed on 96-well plates. Mueller-Hinton broth (MHB) was used as the working medium for all bacterial strains, while in case of fungi it was additionally supplemented with 2% glucose.
Briefly, inoculum was prepared from freshly grown cultures of microorganisms being at their exponential phase of growth. […] Then plates were incubated overnight at 37°C and absorbance was read at 590 nm after 24 h. […]
All peptides were screened against the wide range of microorganisms, including Gram-negative, Gram-positive bacteria and fungi from Candida species (Table 2). […] All assays were performed on liquid Mueller-Hinton broth, which was additionally supplemented with 2% glucose when fungicidal activity towards Candida spps. was analyzed.

For “IKKILSKIKKLL-NH2 [DK5, Lys-rich derivative of amphibian AMP temporin-1CEb, …-NH2, reference compound]”, the “MIC P.mirabilis” value was “NI ^a)”.
